These results are taken from patent US11209420B2, “Cancer diagnostics, therapeutics, and drug discovery associated with macropinocytosis” (New York University, priority 2011, dated 2021).

In data set [1] the test system is T24 cells. As to the kind of experiment: FITC-BSA internalization. It counts as cell-based. Here is the method:
(§1) When added to the growth medium, fluorescently-labeled bovine serum albumin (FITC-BSA) was incorporated into vesicular compartments in oncogenic Ras^V12-expressing HeLa cells (FIG. 6A), MIA-Paca-2, and T24 cells. […] Quantification of FITC-BSA uptake was performed utilizing an amended form of the high-throughput protocol described herein (FIG. 6B). Using colocalization experiments, it was observed that FITC-BSA is internalized with a macropinocytosis marker, dextran (FIG. 7A-7C). To be utilized as a nutrient source, the protein contents of Ras-stimulated macropinosomes must be delivered to a degradative compartment, such as the lysosome. The fate of the macropinosomes was followed via pulse chase experiments and their fusion with lysosomes was monitored by co-staining with lysosomal markers (i.e. Lysotracker). Cells were pulsed with TMR-dextran and incubated with TMR-dextran-free media for varying intervals. At the end of the incubation period, cells were stained with a lysosomal marker and visualized by fluorescent microscopy.

The test system of data set [2] is T24 cells. As to the kind of experiment: TMR-dextran labeling of macropinosomes. It counts as cell-based. Conditions: T24, oncogenic H-Ras. How it is done: (§2) It was postulated that cancer cells harboring oncogenic Ras mutations would display higher levels of macropinocytosis compared to cancer cells having a non-mutant Ras. For pancreatic cancer cells, macropinocytosis was analyzed in MIA-Paca-2 cells, which are homozygous for the oncogenic K-Ras^G12C allele (Lopez-Crapez et al., “Rapid and Large-Scale Method to Detect K-Ras Gene Mutations in Tumor Samples,” Clin. Chem. 43(6 Pt 1):936-42 (1997) and Pretlow et al., “K-Ras Mutations in Putative Preneoplastic Lesions in Human Colon,” J. Natl. Cancer Inst. 85(24):2004-7 (1993), which are hereby incorporated by reference in their entirety) and BxPc-3 cells that only express wild-type K-Ras (Aoki et al., “Liposome-Mediated in vivo Gene Transfer of Antisense K-Ras Construct Inhibits Pancreatic Tumor Dissemination in the Murine Peritoneal Cavity,” Cancer Res. 55(17):3810-6 (1995), which is hereby incorporated by reference in its entirety). As a bladder model, uptake in T24 and 5637 cells was analyzed. T24 cells are homozygous for the oncogenic H-Ras^V12C allele and 5637 cells only express wild-type H-Ras. […]

Data set [3] has as its system HeLa cells expressing HA-H-Ras^V12. As to the kind of experiment: High-throughput macropinocytosis assay (TMR-dextran uptake, Arrayscan spot detection). It counts as cell-based, human. The note with it: 30 min pre-incubation in serum-free media, then TMR-dextran 30 min; dose-response. The source says:
To analyze and quantify Ras-stimulated macropinocytosis, a high content screening (HCS)-compatible platform designed for rapid spot analysis was desired. One such platform is the Arrayscan HCS Reader (Cellomics) in conjunction with the Spot Detector BioApplication (Cellomics), which is designed to provide fluorescent- and image-based generic spot analysis for multiple biological applications. As a model cell-based system, a HeLa Tet-Off (HTO) cell line (Clontech) stably transfected with a tetracycline-repressible transgene encoding an oncogenic form of hemagglutinin (HA)-tagged H-Ras (H-Ras^V12) was used. In brief, 2000 cells per well were plated in 384-well plate format in a total volume of 50 μL. To induce expression of H-Ras^V12, cells were plated in media lacking tetracycline, while control cells were plated in 50 ng/mL tetracycline. […] Macropinosomes were analyzed on a cell-to-cell basis using multichannel analysis on the Arrayscan HCS Reader (FIG. 21A). […] A circular spot identification target region (or mask) was then applied for each object on Channel 2, and spots were detected based on their fluorescent intensity, size, and shape. […] To quantify this, the output feature selected for Channel 2 was Spot Count Per Object, which is effectively a measure of total number amount of fluorescent extracellular fluid internalized per cell in a given incubation time. […]

Data set [4] deals with NIH 3T3 [K-Ras^G12V] cells. As to the kind of experiment: Intracellular glutamate and α-ketoglutarate levels after albumin supplementation. The note with it: complete medium + 2% albumin, 24 hours. It counts as cell-based, murine. Here is the method:
Glutamine is a major nutrient for many proliferating cells and is rapidly metabolized to glutamate, then α-ketoglutarate to enter central carbon metabolism. To test whether the favorable effects of albumin supplementation on cell growth were related to glutamine metabolism, the intracellular concentrations of glutamate and α-ketoglutarate in cells grown either in the absence or presence of albumin was measured. NIH 3T3 [K-Ras^G12V] cells were cultured for 24 hours in complete media (CM) supplemented to physiological concentrations of albumin (2 g/100 mL, 2%). As a control, NIH 3T3 [K-Ras^G12V] cells were also cultured in CM alone, which contains minimal levels of albumin (˜0.2%). Cells were lysed and metabolite levels were determined from deproteinized cell lysates. The addition of albumin to the media led to significant increases in intracellular concentrations of both glutamate and α-ketoglutarate (FIG. 20A).

Data set [5] concerns MIA-Paca-2 cells. Description: FITC-BSA internalization. It counts as cell-based, human. How it is done: as §1
Data set [6] has as its system oncogenic Ras^V12-expressing HeLa cells. As to the kind of experiment: FITC-BSA internalization. It counts as cell-based, human. How it is done: as §1
Data set [7] relates to MIA-Paca-2 cells. As to the kind of experiment: TMR-dextran labeling of macropinosomes. The note with it: MIA-Paca-2, oncogenic K-Ras^G12C. It counts as cell-based, human. How it is done:
as §2

The next data set relates to macropinocytosis. Conditions: cited from earlier work.
Data set [8] has as its system K-Ras^V12-transformed NIH3T3 cells. Description: High-throughput macropinocytosis assay, amended protocol. Conditions: high-throughput quantification. It counts as cell-based, murine. From the text: To explore the flexibility of the high-throughput compatible macropinocytosis assay, the HeLa-based Spot Detector BioApplication parameters were amended to quantify macropinocytosis in K-Ras^V12-expressing NIH3T3 cells. To do this, object identification parameters were altered to accommodate larger nuclei and the spot identification target region was adjusted accordingly. Untransformed NIH3T3 cells display low levels of macropinocytosis, compared to K-Ras^V12-transformed cells. Using this amended protocol, it was possible to quantify fluid-phase uptake in these cells and determine that K-Ras^V12-expressing cells have a 3-4 fold increase in macropinocytosis (FIGS. 2A-2B). To examine the effects of macropinocytosis inhibitors, K-Ras^V12-transformed NIH3T3 cells were treated with increasing concentrations of LY294002 or EIPA.

The conditions of data set [9]: cited from earlier work.
Data set [10] concerns oncogenic Ras-transformed cells. Description: Proliferation in low glutamine with physiological albumin. It counts as cell-based. The note with it: 0.2 mM glutamine, rescued by increased glutamine or α-ketoglutarate.
Data set [11] concerns oncogenic Ras^V12-expressing HeLa cells. As to the kind of experiment: Survival under glutamine starvation with extracellular albumin. It counts as cell-based, human. Conditions: glutamine-free media, low BSA or 2% BSA. Here is the method: If albumin internalization via Ras-stimulated macropinocytosis serves to augment the glutamine supply, then this process should confer a survival and growth advantage under conditions where free glutamine is limiting. To test this prediction, the survival of oncogenic Ras^V12-expressing HeLa cells was tested. […] It was hypothesized that this was due to albumin-derived amino acids that were augmenting the intracellular glutamine supply. It was determined that Ras^V12-survival was enhanced at higher concentrations of extracellular albumin (up to 2%; FIG. 13) and that this survival enhancement was suppressed by EIPA, a macropinocytosis inhibitor (FIGS. 14A-14B).

As to `CCN(c1nc(N)c(C(=O)N=C(N)N)nc1Cl)C(C)C` [EIPA, 5-N-ethyl-N-isoproamiloride], the FITC-BSA internalization entry (in the data set with T24 cells [1]; in the data set on MIA-Paca-2 cells [5]; in [6]) was “inhibited” throughout. For the same compound, the “TMR-dextran labeling (macropinocytosis)” value with T24 cells [2] and in the data set with MIA-Paca-2 cells [7] was “inhibited” each time. In addition, the “concentration at which maximal inhibition of macropinocytosis occurs” value in [3] turned out to be 100 µM. Besides, the “albumin-dependent increase in intracellular α-ketoglutarate” value in [4] (25 mM EIPA) is listed as “blocked”. For the same compound, the “albumin-dependent increase in intracellular glutamate” value in data set [4] (EIPA) is on record as “blocked”. Besides, in the data set on macropinocytosis, the “concentrations at which it exerts its effects on macropinocytosis” value was 50 to 100 µM. The “effect on macropinocytosis with increasing concentrations” value in data set [8] is “dose-response relationship”. Further, in [9], the “solubility in cell culture media” value was “soluble in cell culture media”. In addition, the effect on proliferation result in data set [10] is “anti-proliferative response”. Moreover, in data set [11], the “survival enhancement by extracellular albumin” value is listed as “suppressed”.
For the compound `O=c1cc(N2CCOCC2)oc2c(-c3ccccc3)cccc12` [LY294002, 2-(4-morpholinyl)-8-phenyl-4H-1-benzopyran-4], in [3], the “concentration at which maximal inhibition of macropinocytosis occurs” value is 100 µM.
`N=C(N)NC(=O)c1nc(Cl)c(N)nc1N` [amiloride]: in the data set on macropinocytosis, the “concentrations at which it exerts its effects on macropinocytosis” value is 1000 to 5000 µM.
